Tested on: HeLa cell
Assay: Cell penetration of pep(CPP)-FITC conjugates in HeLa cell line, flow cytometry (FACS)
Assay type: cell-based, Homo sapiens
Conditions: HeLa cells, 20 μM of each carrier peptide combined with FITC, 37° C. for an hour, control cells treated only FITC
Description: Homo sapiens cervix adenocarcinoma cell line as HeLa cell lines were purchased from ATCC (American Type Cell Culture). The cells were cultured in MEM supplemented with 10% fetal bovine serum (Invitrogen, USA), Earle's salts, non-essential amino acids, sodium pyruvate and 100 μg/ml penicillin and 10 units/ml streptomycin and cultured at 37° C., 5% CO2 incubator.
Flow cytometry and Confocal microscope analysis were performed to compare the between degree of cellular uptake of the cells were treated with SEQ ID NO: 1 to SEQ ID NO: 156, pep (CPP) and control.
The cell line was divided in a 6-well plate and cultured in a medium containing 10% fetal bovine serum (Invitrogen, USA), […] at 37° C., 5% CO2 incubator for 12 hours. After washing the cell line with PBS, starvation was induced in a Minimum Essential Medium for an hour. 20 μM of each carrier peptide was treated and cultured at 37° C. for an hour. After repeating the step of washing the cells with PBS for three times, Trypsin-EDTA was treated form 10 mins at 37° C. to separate the carrier peptide on the outside of the cell. cells were collected with refrigerated PBS and centrifugation was performed to repeat the step of washing the cells for three times. After then, the cells were suspended in 0.5 ml of PBS containing 4% Paraformaldehyde and fluorescence of the cells was analyzed using FACS Calibur (Becton Dickinson). The cellular uptake aspect of control and various peptides combined with FITC was compared and analyzed by MFI (Mean Fluorescence Intensity).
Analysis results shown in FIG. 1 to FIG. 23 are given in detail in Table 3 below.

| Sequence | cellular uptake, MFI (Mean Fluorescence Intensity) |
| --- | --- |
| AAEHRLREEILAKFLHWLMS (listed as Homo sapiens) [pep134] | 78.05 ± 2.26 |
| AAGPLPSEAVQWLCHQAFLL (listed as Homo sapiens) [pep103] | 126.88 ± 2.14 |
| AERLTSRVKALFSVL (listed as Homo sapiens) [pep10] | 559.78 ± 3.41 |
| AHGHVRKAFKSHVSTLTDLQ (listed as Homo sapiens) [pep145] | 11.97 ± 0.78 |
| ALFSVLNYE (listed as Homo sapiens) [pep29] | 33.5 ± 2.48 |
| ALFSVLNYER (listed as Homo sapiens) [pep15] | 35.61 ± 1.29 |
| ALFSVLNYERARRPGLLGASVLGLDDIHRA [pep2] | 37.6 ± 1.89 |
| ALLTSRLRFI (listed as Homo sapiens) [pep5] | 19.06 ± 1.33 |
| AQCPYGVLLKTHCPLRAAVT (listed as Homo sapiens) [pep70] | 21.82 ± 1.76 |
| ARRPGLLG (listed as Homo sapiens) [pep33] | 14.36 ± 1.63 |
| ARRPGLLGA (listed as Homo sapiens) [pep26] | 14.81 ± 1.77 |
| ATQARPPPHASGPRRRLGCE (listed as Homo sapiens) [pep59] | 18.58 ± 0.52 |
| CGPPLYQLGAATQARPPPHA (listed as Homo sapiens) [pep116] | 20.5 ± 0.97 |
| CPPVYAETKHFLYSSGDKEQ (listed as Homo sapiens) [pep66] | 20.7 ± 2.57 |
| DARPPPAAPSFRQVSCLKEL (listed as Homo sapiens) [pep53] | 16.16 ± 0.66 |
| DEALGGTAFVQMPAHGLFPW (listed as Homo sapiens) [pep153] | 31.72 ± 1.74 |
| EAEVRQHREARPALL (listed as Homo sapiens) [pep40] | 11.63 ± 1.11 |
| EARPALLTSRLRFIPKPDGL (listed as Homo sapiens) [pep138] | 16.43 ± 0.91 |
| EDTDPRRLVQLLRQHSSPWQ (listed as Homo sapiens) [pep72] | 17.57 ± 2.31 |
| ERARRPGL (listed as Homo sapiens) [pep32] | 11.98 ± 2.92 |

| Sequence | cellular uptake, MFI (Mean Fluorescence Intensity) |
| --- | --- |
| ERARRPGLL (listed as Homo sapiens) [pep22] | 13.56 ± 0.23 |
| FIPKPDGLRPIVNMD (listed as Homo sapiens) [pep42] | 20.82 ± 1.93 |
| FLYSSGDKEQLRPSFLLSSL (listed as Homo sapiens) [pep124] | 23.74 ± 3.62 |
| FSVLNYERAR (listed as Homo sapiens) [pep18] | 18.7 ± 1.21 |
| FVLRVRAQDPPPELY (listed as Homo sapiens) [pep46] | 24.67 ± 2.02 |
| GAAPEPERTPVGQGSWAHPG (listed as Homo sapiens) [pep62] | 14.55 ± 3.71 |
| GARTFRREKRAERLTSRVKA (listed as Homo sapiens) [pep82] | 22.44 ± 3.32 |
| GASVLGLDDI (listed as Homo sapiens) [pep14] | 10.51 ± 3.71 |
| GLLGASVL (listed as Homo sapiens) [pep34] | 14.41 ± 3.44 |
| GLLGASVLG (listed as Homo sapiens) [pep30] | 14.37 ± 1.73 |
| GLLGASVLGL (listed as Homo sapiens) [pep4] | 28.35 ± 2.54 |
| GVPLGLPAPGARRRGGSASR (listed as Homo sapiens) [pep118] | 14.69 ± 0.33 |
| KLQSIGIRQHLKRVQ (listed as Homo sapiens) [pep39] | 21.4 ± 0.99 |
| KLTRHRVTYVPLLGSLRTAQ (listed as Homo sapiens) [pep104] | 36.74 ± 1.11 |
| KMSVRDCAWLRRSPGVGCVP (listed as Homo sapiens) [pep133] | 46.79 ± 1.92 |
| KSVWSKLQSIGIRQH (listed as Homo sapiens) [pep48] | 26.51 ± 2.36 |
| KTFLRTLVRGVPEYGCVVNL (listed as Homo sapiens) [pep94] | 117.76 ± 4.24 |
| LCSLCYGDMENKLFAGIRRD (listed as Homo sapiens) [pep92] | 19.91 ± 0.51 |
| LDDIHRAWRTFVLRV (listed as Homo sapiens) [pep45] | 203.77 ± 3.26 |
| LFFYRKSVWSKLQSI [pep38] | 380.4 ± 2.6 |

| Sequence | cellular uptake, MFI (Mean Fluorescence Intensity) |
| --- | --- |
| LFSVLNYERARRPGLLGASV (listed as Homo sapiens) [pep83] | 24.57 ± 1.36 |
| LGASVLGL (listed as Homo sapiens) [pep36] | 15.37 ± 2.65 |
| LGPQGWRLVQRGDPAAFRAL (listed as Homo sapiens) [pep109] | 12.46 ± 1.32 |
| LKRVQLRELSEAEVRQ (listed as Homo sapiens) [pep49] | 13.91 ± 0.51 |
| LLGASVLGL (listed as Homo sapiens) [pep12] | 22 ± 2.6 |
| LLVTPHLTHAKTFLRLTVRG (LLVTPHLTHAKTFLRTLVRG; listed as Homo sapiens) [pep151] | 23.52 ± 0.56 |
| LRFIPKPDGLRPIVNMDYVV (listed as Homo sapiens) [pep81] | 29.69 ± 2.49 |
| LRRVGDDVLVHLIARCALFV (LRRVGDDVLVHLLARCALFV; listed as Homo sapiens) [pep57] | 568.02 ± 3.01 |
| LSEAEVRQHREARPALLTSR (listed as Homo sapiens) [pep80] | 12.45 ± 0.46 |
| LVAPSCAYWVCGPPLYQLGA (LVAPSCAYQVCGPPLYQLGA; listed as Homo sapiens) [pep58] | 19.87 ± 0.94 |
| MPRAPRCRAV (listed as Homo sapiens) [pep107] | 23.11 ± 0.56 |
| MPRAPRCRAVRSLLRSHYRE (listed as Homo sapiens) [pep50] | 2228.76 ± 3.68 |
| NKLFAGIRRDGLLLRLVDDF (listed as Homo sapiens) [pep150] | 17.46 ± 0.24 |
| NYERARRPGL (listed as Homo sapiens) [pep19] | 13.04 ± 3.41 |
| PAAGVCAREKPQGSVAAPEE (listed as Homo sapiens) [pep71] | 16.61 ± 0.88 |
| PALPSDFKTILD (listed as Homo sapiens) [pep106] | 12.45 ± 0.38 |
| PGLLGASVL (listed as Homo sapiens) [pep27] | 9.89 ± 2.51 |
| PPEAFTTSVRSYLPNTVTDA (listed as Homo sapiens) [pep113] | 16.09 ± 2.5 |

— patent publication US11773381B2, “Cell penetrating peptide, conjugate comprising same, and composition comprising conjugate” (GemVax & KAEL CO., LTD., priority 2012, dated 2023)
